We go through 2 molecules from paper PMC6770214, “An Aromatic Aldehyde Synthase Controls the Synthesis of Hydroxytyrosol Derivatives Present in Virgin Olive Oil” (Antioxidants, 2019).

Data set [1] concerns the target T1, OeAAS (Olea europaea, UniProt A0A8S0T2W9).
T1 construct: gene OLEA9_A000744; codon-optimised synthetic gene in pET-28a(+)-TEV (NdeI-XhoI), His-tagged, E. coli BL21(DE3), Ni-NTA
T1 sequence (A0A8S0T2W9 1-487): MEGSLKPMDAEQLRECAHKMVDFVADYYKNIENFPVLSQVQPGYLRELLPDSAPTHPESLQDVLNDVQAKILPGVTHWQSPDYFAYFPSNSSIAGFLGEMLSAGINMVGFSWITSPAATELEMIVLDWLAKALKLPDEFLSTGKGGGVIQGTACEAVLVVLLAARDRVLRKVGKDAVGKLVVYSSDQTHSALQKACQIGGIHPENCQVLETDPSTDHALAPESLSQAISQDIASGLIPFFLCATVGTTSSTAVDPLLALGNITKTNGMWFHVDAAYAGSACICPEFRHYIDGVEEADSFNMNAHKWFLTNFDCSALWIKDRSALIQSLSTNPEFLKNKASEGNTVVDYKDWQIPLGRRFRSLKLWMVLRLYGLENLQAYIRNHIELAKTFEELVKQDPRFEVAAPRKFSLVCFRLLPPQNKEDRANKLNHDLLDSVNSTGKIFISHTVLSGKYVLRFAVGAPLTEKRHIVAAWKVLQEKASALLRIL
Kind of data set: loss and restoration of enzyme activity without / with PLP. The format is biochemical. The conditions noted are these: PLP omitted during purification or in reaction medium.

Substrate in data set [2]: N[C@@H](Cc1ccc(O)c(O)c1)C(=O)O
Kind of data set: HPLC-DAD quantification of aldehyde product. The data set is classed as biochemical, Olea europaea. The conditions noted are these: 50 mM sodium phosphate pH 6.8, 200 uM PLP, 30 °C, 20 min, L-DOPA 0.05-5 mM.

`Cc1ncc(COP(=O)(O)O)c(C=O)c1O` [PLP]: the “loss and restoration of enzyme activity without / with PLP” value in data set [1] is recorded as “absence of PLP during purification or in the reaction medium resulted in a total loss”.

B1: OeAAS (Olea europaea subsp. europaea) (protein)
chain: T1 sequence (A0A8S0T2W9 1-487)
notes: codon-optimised synthetic gene in pET-28a(+)-TEV (NdeI-XhoI), His-tagged, E. coli BL21(DE3), Ni-NTA
Regarding B1, in data set [2], the Km was found to be 150 µM.
